Source: ChEMBL document CHEMBL5154693, “N-Methylpropargylamine-Conjugated Hydroxamic Acids as Dual Inhibitors of Monoamine Oxidase A and Histone Deacetylase for Glioma Treatment” (J Med Chem, 2022)
Active and inactive are the calls of the source. The rule behind the calls is not given here.

Experiments:
[1] = system: U-251; experiment: Cytotoxicity against human U251 cells assessed as inhibition of cell growth incubated for 48 hrs by MTT assay; assay type: functional, cell-based; conditions: DDE = dose-dependent effect
[2] = Cytotoxicity against mouse GL26 cells assessed as inhibition of cell growth incubated for 48 hrs by MTT assay; assay type: functional, cell-based; conditions: GL26, 48 h
[3] = target: Histone deacetylase 2 (Homo sapiens, UniProt Q92769); experiment: Inhibition of human HDAC2 (379 to 382 residues) using RHKKAc-AMC fluorogenic peptide as substrate by fluorescence assay
Chain of Histone deacetylase 2 (Q92769 whole entry, the tested form may be a part): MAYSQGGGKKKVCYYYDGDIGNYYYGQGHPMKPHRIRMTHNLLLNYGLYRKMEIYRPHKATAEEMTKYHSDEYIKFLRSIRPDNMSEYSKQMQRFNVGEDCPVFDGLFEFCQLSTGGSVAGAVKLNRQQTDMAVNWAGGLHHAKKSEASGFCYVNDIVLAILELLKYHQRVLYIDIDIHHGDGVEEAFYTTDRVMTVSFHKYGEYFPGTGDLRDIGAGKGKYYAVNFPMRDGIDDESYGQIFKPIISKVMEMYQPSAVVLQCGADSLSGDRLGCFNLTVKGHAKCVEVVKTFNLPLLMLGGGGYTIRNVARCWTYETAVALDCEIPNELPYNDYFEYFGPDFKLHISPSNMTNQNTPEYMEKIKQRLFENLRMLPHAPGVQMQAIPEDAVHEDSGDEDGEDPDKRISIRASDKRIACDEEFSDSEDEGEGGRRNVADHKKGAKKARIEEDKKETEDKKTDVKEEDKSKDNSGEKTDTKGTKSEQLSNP

[4] = system: Mus musculus; experiment: In vivo inhibition of MAO-A in mouse xenografted with mouse GL26 assessed as decrease in MAO activity in tumor at 25 mg/kg, ip administered for 10 days by bioluminescence assay; assay type: functional, organism-based; conditions: time 10.0 day
[5] = system: U-251; experiment: cells; assay type: functional, cell-based; conditions: Homo sapiens, U-251, 48 h
Description: Cytotoxicity against human TMZ-resistant U251 cells assessed as inhibition of cell growth incubated for 48 hrs by MTT assay

[6] = system: GL26; experiment: Antitumor activity against mouse GL26 cells implanted in C57BL6 mouse assessed as reduction in tumor size at 50 mg/kg, ip daily measured for 10 days by bioluminescence assay; assay type: functional, organism-based; conditions: time 10.0 day
[7] = target: T1, Histone deacetylase 8 (Homo sapiens, UniProt Q9BY41); experiment: Inhibition of human HDAC8 (379 to 382 residues) using RHKKAcKAc-AMC fluorogenic peptide as substrate by fluorescence assay
T1 sequence (Q9BY41 whole entry): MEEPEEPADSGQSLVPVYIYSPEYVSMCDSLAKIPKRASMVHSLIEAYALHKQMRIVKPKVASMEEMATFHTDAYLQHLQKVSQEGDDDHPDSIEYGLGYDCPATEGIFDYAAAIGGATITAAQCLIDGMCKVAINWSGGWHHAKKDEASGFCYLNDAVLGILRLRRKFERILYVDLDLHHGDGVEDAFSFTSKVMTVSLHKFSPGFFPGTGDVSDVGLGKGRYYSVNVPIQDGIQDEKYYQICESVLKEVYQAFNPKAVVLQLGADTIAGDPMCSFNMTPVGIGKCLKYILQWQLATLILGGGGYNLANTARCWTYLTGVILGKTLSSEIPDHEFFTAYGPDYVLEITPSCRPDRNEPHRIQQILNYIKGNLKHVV

[8] = system: Mus musculus; experiment: In vivo inhibition of MAO-A in mouse xenografted with mouse GL26 assessed as decrease in MAO activity in tumor at 50 mg/kg by radiometric analysis; assay type: functional
[9] = target: T2, Amine oxidase [flavin-containing] A (Homo sapiens, UniProt P21397); experiment: Inhibition of MAO-A (unknown origin) expressed in mouse GL26 cells using 14C 5-hydroxytryptamine as substrate pre-incubated for 20 mins followed by substrate addition measured after 20 mins by liquid scintillation spectroscopy; assay type: cell-based
T2 sequence (P21397 whole entry): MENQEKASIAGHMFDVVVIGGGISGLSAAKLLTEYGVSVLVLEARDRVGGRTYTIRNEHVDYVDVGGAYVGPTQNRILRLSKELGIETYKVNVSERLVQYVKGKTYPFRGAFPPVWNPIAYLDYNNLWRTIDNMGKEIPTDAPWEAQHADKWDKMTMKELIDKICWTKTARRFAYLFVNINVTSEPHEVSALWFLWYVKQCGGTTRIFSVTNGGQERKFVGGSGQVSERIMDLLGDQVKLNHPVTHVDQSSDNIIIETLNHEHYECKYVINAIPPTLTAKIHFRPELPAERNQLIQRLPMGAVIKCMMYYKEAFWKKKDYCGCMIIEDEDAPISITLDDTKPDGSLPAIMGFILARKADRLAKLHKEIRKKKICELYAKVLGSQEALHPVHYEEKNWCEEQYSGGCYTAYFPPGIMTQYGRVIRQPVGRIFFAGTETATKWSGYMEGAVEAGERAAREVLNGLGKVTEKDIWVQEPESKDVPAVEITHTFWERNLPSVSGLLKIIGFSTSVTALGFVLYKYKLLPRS

[10] = system: U-251; experiment: cells; assay type: functional, cell-based; conditions: Homo sapiens, U-251, 48 h; remark: listed apart in the source
Description: Cytotoxicity against human TMZ-sensitive U251 cells assessed as inhibition of cell growth incubated for 48 hrs by MTT assay

[11] = system: Mus musculus; experiment: In vivo inhibition of MAO-A in C57BL6 mouse xenografted with mouse GL26 cells as decrease in MAO activity in brain at 50 mg/kg, ip by radiometric analysis; assay type: functional, organism-based
[12] = Toxicity in C57BL6 mouse xenografted with mouse GL26 cells as assessed as last day of survival at 50 mg/kg, ip for 14 days treatment started at 5 days post-infection (Rvb=14 days); assay type: organism-based; conditions: in vivo, 336 h, time 14 day
[13] = system: Mus musculus; experiment: In vivo inhibition of MAO-A in mouse xenografted with mouse GL26 assessed as decrease in MAO activity in brain at 25 mg/kg, ip administered for 10 days by bioluminescence assay; assay type: functional, organism-based; conditions: time 10.0 day
[14] = system: GL26; experiment: Antiproliferative activity against mouse GL26 cells assessed as decrease in number of colonies at 0.625 to 1.25 uM incubated for 48 hrs by colony formation assay; assay type: functional, cell-based; conditions: dose 0.625-1.25 µM
[15] = Toxicity in mouse bearing intracranial tumor assessed as assessed as median survival time at 25 mg/kg, ip treatment started at 7 dpi (Rvb=18.25 days); assay type: organism-based; conditions: in vivo, 438 h
[16] = Toxicity in mouse bearing intracranial tumor assessed as last day of survival at 25 mg/kg, ip treatment started at 7 dpi (Rvb=19 days); assay type: organism-based; conditions: in vivo, 456 h
[17] = Toxicity in mouse bearing intracranial tumor assessed as assessed as median survival time at 50 mg/kg, ip for 14 days treatment started at 5 days post-infection (Rvb=12.8 days); assay type: organism-based; conditions: in vivo, 336 h, time 14 day

In the case of `C#CCN(C)CCCOc1ccc(NC(=O)CCCCCCC(=O)NO)cc1Cl`, the Activity [1] is reported as “Dde”, the IC50 [2] is reported as 6040 nM and the IC50 [3] is reported as 460 nM. The Activity [4] was “Active”, the IC50 [5] was 2730 nM and the Activity [6] was “Active”. For the same molecule, the IC50 [7] was 330 nM, the Activity [8] was “Active” and the IC50 [9] was 30 nM. The IC50 [10] was 2830 nM, the Activity [11] was “Active” and the Survival [12] was 16 days. For the same molecule, the Activity [13] was “Active”, the Activity [14] was “Active” and the MST [15] was 17.25 days. It also gave a Survival [16] of 20 days and an MST [17] of 14.25 days.

In the case of `C#CCN(C)CCCOc1cc(NCc2ccc(/C=C/C(=O)NO)cc2)ccc1Cl`, the Activity [1] is reported as “Dde”, the IC50 [2] is reported as 120 nM and the IC50 [3] is reported as 1160 nM. For the same molecule, the Activity [4] was “Active”, the IC50 [5] was 990 nM and the Activity [6] was “Active”. For the same molecule, the IC50 [7] was 80 nM, the Activity [8] was “Active” and the IC50 [9] was 4 nM. For the same molecule, the IC50 [10] was 3240 nM, the Activity [11] was “Active” and the Survival [12] was 14 days. For the same molecule, the Activity [13] was “Active”, the Activity ([14]; DDE = dose-dependent effect) was “Dde” and the MST [15] was 19.5 days. The Survival [16] was 22 days and the MST [17] was 12.75 days.
